The source of these data is patent US20090318501A1, “Piperidine derivatives as renin inhibitors” (priority 2006, published 2009).

In data set [1] the target is T1, trypsin-activated recombinant human renin (Homo sapiens, UniProt P00797).
T1 sequence (P00797 67-406): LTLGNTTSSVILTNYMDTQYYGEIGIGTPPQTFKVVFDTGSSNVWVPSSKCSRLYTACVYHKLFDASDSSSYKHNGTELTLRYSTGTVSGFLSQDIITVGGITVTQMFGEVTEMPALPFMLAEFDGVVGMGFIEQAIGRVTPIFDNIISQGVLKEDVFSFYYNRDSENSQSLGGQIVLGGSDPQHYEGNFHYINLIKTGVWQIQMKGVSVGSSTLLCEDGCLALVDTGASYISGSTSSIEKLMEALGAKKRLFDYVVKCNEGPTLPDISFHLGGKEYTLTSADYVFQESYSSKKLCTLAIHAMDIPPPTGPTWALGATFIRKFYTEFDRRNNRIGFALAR
The data set is described as follows: In vitro renin inhibition, fluorescence of internally quenched peptide substrate. It counts as biochemical. Conditions: pH 7.0, rt. On the procedure:
The sequence of this peptide corresponds to the sequence of human angiotensinogen. The following test protocol was used. All reactions were carried out in a flat bottom white opaque microtiter plate. A 4 μL aliquot of 400 μM renin substrate (DABCYL-γ-[…]) in 192 μL assay buffer (50 mM BES, 150 mM NaCl, 0.25 mg/mL bovine serum albumin, pH7.0) was added to 4 μL of test compound in DMSO at various concentrations ranging from 10 μM to 1 nM final concentrations. Next, 100 μL of trypsin-activated recombinant human renin (final enzyme concentration of 0.2-2 nM) in assay buffer was added, and the solution was mixed by pipetting. The increase in fluorescence at 495 nm (excitation at 340 nm) is measured for 60-360 minutes at rt using a Perkin-Elmer Fusion microplate reader. The slope of a linear portion of the plot of fluorescence-increase as a function of time was then determined, and the rate was used for calculating percent inhibition in relation to uninhibited control. […] (Wang G. T. et al. Anal. Biochem. 1993, 210, 351; Nakamura, N. et al. J. Biochem. (Tokyo) 1991, 109, 741; Murakami, K. et al. Anal Biochem. 1981, 110, 232).

Data set [2] has as its target T2, plasma renin activity (PRA) (Homo sapiens, UniProt P00797).
T2 construct: 87.3% of pooled mixed-gender human plasma stabilized with EDTA; from tissue; host or cells: pooled mixed-gender human plasma (EDTA)
T2 sequence (P00797 67-406): T1 sequence (P00797 67-406)
The data set can be described thus: In vitro plasma renin activity (PRA) in human plasma, angiotensin I radioimmunoassay. Conditions: pooled human plasma, 37° C., 90 min, IC50 of plasma renin activity. The data set is classed as biochemical. As to the method:
For plasma batches with low PRA (less than 1 ng/ml/hr) ˜2 pM of recombinant human renin was added to achieve PRA of 3-4 ng/ml/hr. The cleavage of endogenous angiotensinogen in plasma was carried out at 37° C. for 90 min and the product angiotensin I was measured by competitive radioimmunoassay using DiaSorin PRA kit.

In data set [3] the test system is double transgenic rats engineered to express human renin and human angiotensinogen. The data set can be described thus: In vivo efficacy in double transgenic rats, telemetry blood pressure. Set-up: species or system rat. The following applies: oral, 10 mg/kg, FIG. 3. As to the method:
Double Transgenic Rat: The efficacy of the renin inhibitor 6a was evaluated in vivo in double transgenic rats engineered to express human renin and human angiotensinogen (Bohlender J, Fukamizu A, Lippoldt A, Nomura T, Dietz R, Menard J, Murakami K, Luft F C, Ganten D. High human renin hypertension in transgenic rats. Hypertension 1997, 29, 428-434).
(§1) Experiments were conducted in 6-week-old double transgenic rats (dTGRs). The model has been described in detail earlier. […] The human angiotensinogen construct made up the entire human angiotensinogen gene (5 exons and 4 introns), with 1.3 kB of 5′-flanking and 2.4 kB of 3′-flanking sequences. The rats were purchased from RCC Ltd (Füillinsdorf, Switzerland). Radio telemetry transmitters were surgically implanted at 4 weeks of age. The telemetry system provided 24-h recordings of systolic, mean, diastolic arterial pressure (SAP, MAP, DAP, respectively) and heart rate (HR). Beginning on day 42, animals were transferred to telemetry cages. A 24 h telemetry reading was obtained. Rats were then dosed orally on the following 4 consecutive days (days 43-46). The rats were monitored continuously and allowed free access to standard 0.3%-sodium rat chow and drinking water.

A short description of data set [4]: Plasma concentration in transgenic rats after oral administration. It counts as in vivo, rat. The following applies: 10 mg/kg, FIG. 2. As to the method: FIG. 2 is a plot showing mean plasma concentrations of compound 6a in transgenic rats over time following oral administration of 10 mg/kg of compound 6a.
as §1

Regarding `CNC[C@H](C[C@@H]1CCCOC1)NC(=O)N1CCC[C@@H]([C@@H](OCCNC(=O)OC)c2cc(F)cc(Cl)c2)C1` [Compound 3b, Methyl 2-((R)-(3-chloro-5-fluorophenyl)((R)-1-((S)-1-(methylamino)-3-((S)-tetrahydro-2H-pyran-3-yl)propan-2-ylcarbamoyl)piperidin-3-yl)methoxy)ethylcarbamate], the IC50 in data set [1] and in data set [2] was less than 0.01 µM throughout.

For the compound `CNC[C@H](C[C@H]1CCCOC1)NC(=O)N1CCC[C@@H]([C@@H](OCCNC(=O)OC)c2cccc(Cl)c2)C1` [Compound 6a, methyl 2-((R)-(3-chlorophenyl)((R)-1-((S)-1-(methylamino)-3-((R)-tetrahydro-2H-pyran-3-yl)propan-2-ylcarbamoyl)piperidin-3-yl)methoxy)ethylcarbamate], in data set [3], the “effect on mean arterial blood pressure” value is listed as “significant effect in lowering blood pressures”. Besides, in data set [4], the “oral bioavailability and metabolic stability” value is given as “excellent”; the “plasma concentration of compound following oral administration” value was “remains relatively high over 24 h period”. Further, in data set [1], the IC50 is less than 0.001 µM. Also, the IC50 in data set [2] is less than 0.001 µM.

On to `CNC[C@H](C[C@H]1CCCOC1)NC(=O)N1CCC[C@@H]([C@@H](OCCNC(=O)OC)c2cccc(F)c2)C1` [Compound 2a, methyl 2-((R)-(3-fluorophenyl)((R)-1-((S)-1-(methylamino)-3-((R)-tetrahydro-2H-pyran-3-yl)propan-2-ylcarbamoyl)piperidin-3-yl)methoxy)ethylcarbamate], for which the IC50 in data set [1] and in data set [2] was less than 0.01 µM in each case.

`CNC[C@H](C[C@H]1CCCOC1)NC(=O)N1CCC[C@@H]([C@@H](OCCNC(=O)OC)c2cc(F)cc(Cl)c2)C1` [Compound 3a, methyl 2-((R)-(3-chloro-5-fluorophenyl)((R)-1-((S)-1-(methylamino)-3-((R)-tetrahydro-2H-pyran-3-yl)propan-2-ylcarbamoyl)piperidin-3-yl)methoxy)ethylcarbamate]: the IC50 in data set [1] and in data set [2] was less than 0.001 µM throughout.

On to `CNC[C@H](C[C@@H]1CCCOC1)NC(=O)N1CCC[C@@H]([C@@H](OCCNC(=O)OC)c2cc(F)ccc2C)C1` [Compound 5b, methyl 2-((R)-(5-fluoro-2-methylphenyl)((R)-1-((S)-1-(methylamino)-3-((S)-tetrahydro-2H-pyran-3-yl)propan-2-ylcarbamoyl)piperidin-3-yl)methoxy)-ethylcarbamate], for which the IC50 is less than 0.02 µM in data set [1] and less than 0.05 µM in data set [2].

Turning to `CNC[C@H](C[C@@H]1CCCOC1)NC(=O)N1CCC[C@@H]([C@@H](OCCNC(=O)OC)c2cccc(Cl)c2)C1` [Compound 6b, methyl 2-((R)-(3-chlorophenyl)((R)-1-((S)-1-(methylamino)-3-((S)-tetrahydro-2H-pyran-3-yl)propan-2-ylcarbamoyl)piperidin-3-yl)methoxy)ethylcarbamate], the IC50 in data set [1] and in data set [2] was less than 0.01 µM in each case.

Consider `CNC[C@H](C[C@H]1CCCOC1)NC(=O)N1CCC[C@@H]([C@@H](OCCNC(=O)OC)c2cc(Cl)ccc2C)C1` [Compound 10, methyl 2-((R)-(5-chloro-2-methylphenyl)((R)-1-((S)-1-(methylamino)-3-((R)-tetrahydro-2H-pyran-3-yl)propan-2-ylcarbamoyl)piperidin-3-yl)methoxy)-ethylcarbamate], for which the IC50 was less than 0.01 µM in data set [1] and less than 0.001 µM in data set [2].

In the case of `CNC[C@H](C[C@H]1CCCOC1)NC(=O)N1CCC[C@@H]([C@@H](OCCNC(=O)OC)c2ccccc2)C1` [Compound 7, methyl 2-((R)-((R)-1-((S)-1-(methylamino)-3-((R)-tetrahydro-2H-pyran-3-yl)propan-2-ylcarbamoyl)piperidin-3-yl)(phenyl)methoxy)ethylcarbamate], the IC50 in data set [1] was less than 0.02 µM; in data set [2], less than 0.05 µM.

In the case of `CNC[C@H](C[C@H]1CCCOC1)NC(=O)N1CCC[C@@H]([C@@H](OCCNC(=O)OC)c2cc(F)ccc2C)C1` [Compound 5a, methyl 2-((R)-(5-fluoro-2-methylphenyl)((R)-1-((S)-1-(methylamino)-3-((R)-tetrahydro-2H-pyran-3-yl)propan-2-ylcarbamoyl)piperidin-3-yl)methoxy)-ethylcarbamate], the IC50 in data set [1] and in data set [2] was less than 0.01 µM in each case.

`CNC[C@H](CC1CCCOC1)NC(=O)N1CCC[C@@H]([C@@H](OCCNC(=O)OC)c2cccc(C)c2)C1` (stereo partly drawn) [Compound 1, methyl 2-((R)-((R)-1-((S)-1-(methylamino)-3-(tetrahydro-2H-pyran-3-yl)propan-2-ylcarbamoyl)piperidin-3-yl)(m-tolyl)methoxy)ethylcarbamate]: the IC50 in data set [1] and in data set [2] was less than 0.01 µM throughout.

Turning to `CNC[C@H](C[C@H]1CCCOC1)NC(=O)N1CCC[C@@H]([C@@H](OCCNC(=O)OC)c2ccc(F)c(Cl)c2)C1` [Compound 8, methyl 2-((R)-(3-chloro-4-fluorophenyl)((R)-1-((S)-1-(methylamino)-3-((R)-tetrahydro-2H-pyran-3-yl)propan-2-ylcarbamoyl)piperidin-3-yl)methoxy)-ethylcarbamate], the half-inhibitory concentration (IC50) in data set [1] and in data set [2] was less than 0.01 µM throughout.

Take `CNC[C@H](C[C@H]1CCCOC1)NC(=O)N1CCC[C@@H]([C@@H](OCCNC(=O)OC)c2cc(F)cc(F)c2)C1` [Compound 4a, methyl 2-((R)-(3,5-difluorophenyl)((R)-1-((S)-1-(methylamino)-3-((R)-tetrahydro-2H-pyran-3-yl)propan-2-ylcarbamoyl)piperidin-3-yl)methoxy)ethylcarbamate]: the IC50 in data set [1] and in data set [2] was less than 0.01 µM each time.

Regarding `CNC[C@H](C[C@@H]1CCCOC1)NC(=O)N1CCC[C@@H]([C@@H](OCCNC(=O)OC)c2cccc(F)c2)C1` [Compound 2b, methyl 2-((R)-(3-fluorophenyl)((R)-1-((S)-1-(methylamino)-3-((S)-tetrahydro-2H-pyran-3-yl)propan-2-ylcarbamoyl)piperidin-3-yl)methoxy)ethylcarbamate], the IC50 in data set [1] was less than 0.01 µM; in data set [2] it was less than 0.02 µM.

As for `CCOC(=O)NCCO[C@@H](c1cc(F)cc(Cl)c1)[C@@H]1CCCN(C(=O)N[C@H](CNC)C[C@H]2CCCOC2)C1` [Compound 9, ethyl 2-((R)-(3-chloro-5-fluorophenyl)((R)-1-((S)-1-(methylamino)-3-((R)-tetrahydro-2H-pyran-3-yl)propan-2-ylcarbamoyl)piperidin-3-yl)methoxy)-ethylcarbamate], the results for the IC50 in data set [1] and in data set [2] were less than 0.01 µM and less than 0.05 µM, respectively.

Regarding `CNC[C@H](C[C@@H]1CCCOC1)NC(=O)N1CCC[C@@H]([C@@H](OCCNC(=O)OC)c2cc(F)cc(F)c2)C1` [Compound 4b, methyl 2-((R)-(3,5-difluorophenyl)((R)-1-((S)-1-(methylamino)-3-((S)-tetrahydro-2H-pyran-3-yl)propan-2-ylcarbamoyl)piperidin-3-yl)methoxy)ethylcarbamate], the IC50 is less than 0.01 µM in data set [1] and less than 0.05 µM in data set [2].
